Experimental findings from patent US7576105B2, “Benzyl substituted (piperidin-4-yl)aminobenzamido derivatives” (priority 2002, dated 2009) are described below.

Assay [1] deals with T1, μ-opioid receptor (Rattus norvegicus, UniProt P33535).
T1 construct: from tissue; host or cells: rat forebrain homogenate (Wistar rat)
Put plainly: Rat brain μ-opioid receptor binding assay. The conditions noted are these: rat forebrain particulate preparation, [3H]DAMGO, 25° C.

Assay [2] deals with T2, δ-opioid receptor (Rattus norvegicus, UniProt P33533).
T2 construct: from tissue; host or cells: rat forebrain homogenate (Wistar rat)
Kind of assay: Rat brain δ-opioid receptor binding assay. The conditions noted are these: rat forebrain particulate preparation, [3H]DPDPE, 25° C.

Assay [3] deals with acetylcholine bromide-induced abdominal constriction. The conditions noted are these: mouse, in vivo.

Molecules are shown by their SMILES. Some results are limits rather than exact numbers.

T2 sequence (P33533 whole entry): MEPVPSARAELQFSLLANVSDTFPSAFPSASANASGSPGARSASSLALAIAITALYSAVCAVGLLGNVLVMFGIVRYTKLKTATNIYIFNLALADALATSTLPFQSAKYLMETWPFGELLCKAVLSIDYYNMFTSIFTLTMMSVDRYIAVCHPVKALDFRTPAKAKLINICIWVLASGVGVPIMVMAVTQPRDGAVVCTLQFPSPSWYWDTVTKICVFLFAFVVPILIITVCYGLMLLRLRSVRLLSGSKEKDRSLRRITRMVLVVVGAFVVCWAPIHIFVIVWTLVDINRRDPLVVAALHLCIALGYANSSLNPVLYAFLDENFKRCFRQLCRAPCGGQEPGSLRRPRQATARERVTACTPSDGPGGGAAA
T1 sequence (P33535 whole entry): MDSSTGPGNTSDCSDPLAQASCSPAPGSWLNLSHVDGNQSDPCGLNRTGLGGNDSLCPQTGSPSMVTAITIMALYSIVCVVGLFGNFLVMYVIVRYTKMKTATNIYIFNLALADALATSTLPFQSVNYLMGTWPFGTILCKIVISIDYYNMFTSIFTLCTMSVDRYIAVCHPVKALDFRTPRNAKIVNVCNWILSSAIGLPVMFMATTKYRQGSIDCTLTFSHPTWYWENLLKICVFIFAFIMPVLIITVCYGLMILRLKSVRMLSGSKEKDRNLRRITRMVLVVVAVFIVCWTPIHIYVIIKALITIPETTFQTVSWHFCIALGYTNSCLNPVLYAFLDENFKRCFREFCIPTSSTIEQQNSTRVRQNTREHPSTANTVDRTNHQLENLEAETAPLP

With `CCCN1CCC(N(Cc2cccc(OC)c2)c2ccc(C(=O)N(CC)CC)cc2)CC1` [Compound 1, N,N-diethyl-4-[3-methoxybenzyl(1-propylpiperidin-4-yl)amino]benzamide], the Ki in assay [1] came out at 9.28 µM; in assay [2], 0.24 µM.

Regarding `CCCN1CCC(N(Cc2cccc(O)c2)c2ccc(C(=O)N(CC)CC)cc2)CC1` [Compound 2, N,N-Diethyl-4-[3-hydroxybenzyl(1-propylpiperidin-4-yl)amino]benzamide], the “MAIT % Inhibition @150 μmol/kg” value in assay [3] was found to be 13.3%.

For `CCCN1CCC(N(Cc2ccccc2O)c2ccc(C(=O)N(CC)CC)cc2)CC1` [Compound 5, N,N-Diethyl-4-[2-hydroxybenzyl(1-propylpiperidin-4-yl)amino]benzamide], the Ki in assay [1] was at least 10 µM; in assay [2], 3.47 µM.

For `CCCN1CCC(N(Cc2ccccc2)c2ccc(C(=O)N(CC)CC)cc2)CC1` [Compound 7, N,N-Diethyl-4-[benzyl(1-propylpiperidin-4-yl)amino]benzamide], the “MAIT % Inhibition @150 μmol/kg” value in assay [3] was 100%.

`CCN(CC)C(=O)c1ccc(N(Cc2ccccc2)C2CCNCC2)cc1` [Compound 8, N,N-Diethyl-4-[benzyl(piperidin-4-yl)amino]benzamide]: the “MAIT % Inhibition @150 μmol/kg” value in assay [3] is 33.3%.

Consider `C=CCN1CCC(N(Cc2ccccc2)c2ccc(C(=O)N(CC)CC)cc2)CC1` [Compound 9, N,N-Diethyl-4-[benzyl(1-allylpiperidin-4-yl)amino]benzamide], for which the “MAIT % Inhibition @150 μmol/kg” value in assay [3] was determined as 84.6%.

As for `CCN(CC)C(=O)c1ccc(N(Cc2ccccc2)C2CCN(C(C)C)CC2)cc1` [Compound 10, N,N-Diethyl-4-[benzyl(1-isopropylpiperidin-4-yl)amino]benzamide], the Ki in assay [1] amounted to 3.79 µM; in assay [2], 0.585 µM.

On to `CCN(CC)C(=O)c1ccc(N(Cc2ccccc2)C2CCN(CCCN(C)C)CC2)cc1` [Compound 11, N,N-Diethyl-4-[benzyl(1-[3-dimethylaminopropyl]piperidin-4-yl)amino]benzamide], for which the figures for the inhibition constant Ki in assay [1] and in assay [2] were at least 10 µM and 1.77 µM, respectively.
